Assay results from patent publication US20100256145A1, “USE OF KCNQ POTASSIUM CHANNEL OPENERS FOR REDUCING SYMPTOMS OF OR TREATING DISORDERS OR CONDITIONS WHEREIN THE DOPAMINERGIC SYSTEM IS DISRUPTED” (H. LUNDBECK A/S, priority 2007, published 2010).
Marks after values point to notes of the source that are not given here.

Experiments:
[1] = system: extracellular DA levels in the nucleus accumbens; experiment: Microdialysis: amphetamine-evoked DA levels in the nucleus accumbens of freely moving rats; assay type: in vivo, rat; conditions: for Normalised DA level in the nucleus accumbens: compound 5 mg/kg s.c., D-amphetamine 0.5 mg/kg s.c. 30 min later; for Effect on the basal extracellular DA level in the nucleus accumbens: without amphetamine, data not shown
Method: Subjects. Male Sprague-Dawley rats (Charles River), initially weighing 275-300 g, are used.
Surgery. Animals are anaesthetized with hypnorm/dormicum (2 ml/kg s.c.) and intracerebral guide cannulas (CMA/12) are stereotaxically implanted, positioning the dialysis probe tip in the nucleus accumbens (co-ordinates: 1.7 mm anterior to bregma, −1.2 mm lateral to bregma, 8.0 mm ventral to the dura). Anchor screws and acrylic cement is applied for fixation of the guide cannula. The body temperature of the animals is maintained at 37° C. by means of a rectal probe and a heating plate. The rats are allowed to recover from surgery for 2 days, housed singly in cages.
Experimental procedure. On the day of the experiment, a microdialysis probe (CMA/12, 0.5 mm diameter, 2 mm length) is inserted through the guide cannula of the conscious animal. The probes are connected to a microinjection pump via a dual channel swivel which allowed the animals unrestricted movements. Perfusion of the microdialysis probe with filtered Ringer solution (145 mM NaCl, 3 mM KCl, 1 mM MgCl2, 1.2 mM CaCl2) is maintained for the duration of the experiment at a constant flow rate of 1 μL/min. After 180 min of stabilisation, the experiments are initiated. Dialysates are collected every 20 min. After the experiments the rats are sacrificed by decapitation, their brains removed, frozen and sliced for probe placement verification.
Administration of compounds. […] Thirty minutes later, D-amphetamine sulphate (0.5 mg/kg s.c.) is administered.
Analysis of dialysate. The concentration of DA in the dialysates is assessed by means of HPLC with electrochemical detection. The dialysate constituents are separated by reverse phase liquid chromatography (ODS 150×3 mm, […]). Mobile phase consists of 90 mM NaH2PO4, 50 mM sodium citrate, 367 mg/l sodium 1-octanesulfonic acid, 50 μM EDTA and 8% acetonitrile (pH 4.0) at a flow rate of 0.5 ml/min. Electrochemical detection of DA is accomplished using a coulometric detector; potential set at E1=−75 mV and E2=300 mV (guard cell at 350 mV) (Coulochem II, ESA). The dialysate levels of DA in the three dialyse samples preceding the administration of compound are averaged and used as baseline level of DA (100%)
Statistical analysis. The dialysate levels of DA in the three dialyse samples preceding the administration of compound are averaged and used as baseline level of DA (100%). Data are analysed using repeated measure analyses of variance followed by post hoc tests (Tukey test), when appropriate. *P<0.05 were considered significant.

[2] = system: conditioned avoidance response; experiment: Conditioned avoidance response in rats; assay type: in vivo, rat; conditions: Rattus norvegicus, sc, rats, read-out: % inhibition of avoidance (Std. dev.) Relative to baseline; for inhibition at 2.5 mg/kg: 2.5 mg/kg s.c. 30 min before the test; for inhibition at 5 mg/kg: 5 mg/kg s.c. 30 min before the test
Method: Subjects. Male Wistar rats (Taconic, Denmark) weighing 150 g at the beginning of the study are used. The rats are housed in pairs and maintained on a 12 h light/dark cycle (lights on 06:00). The animals are fed once daily (approx. 6 pellets/rat) in order to keep the rats at 80% of their free-feeding weight. Water is available ad libitum. Temperature (21±1° C.) and relative humidity (55±5%) are automatically controlled.
Experimental procedure. Conditioned avoidance testing is conducted using four automated shuttle-boxes (ENV-010M, MED-Associates) each placed in a sound-attenuated chamber. Each box is divided into two compartments by a partition with an opening. The position of the animal and crossings from one compartment to the other are detected by two photocells placed on either side of the dividing wall. Upon presentation of the conditioned stimuli (CS), tone and light, the animals have 10s to cross to the other compartment of the shuttle-box in order to turn the CS off (end the trial) and avoid the appearance of the unconditioned stimulus (UCS). If the rat remains in the same compartment for more than 10s, the UCS is presented as 0.5 mA scrambled foot-shocks until escape is performed or 10s in maximal duration. The following behavioural variables are evaluated: avoidance (response to CS within 10s); escape (reponse to CS+UCS); escape failures (failure to respond); intertrial crosses and locomotor activity. The rats are habituated to the shuttle-box 3 min before each test session. During training each test session consists of 30 trials with intertrial intervals varying randomly between 20s and 30s. Training is carried out until the rats display an avoidance of 80% or more, on 3 consecutive days. A test is preceded by a pre-test the day before giving rise to a baseline value for each animal, thus the animals serve as their own control. Seven to eight rats are used at each dose level. A parallel control group receiving the vehicle of the test compound is also included.
Administration of compound. […] All compounds are dissolved in a vehicle of 10% 2-hydroxy-propyl-beta-cyclodextrin (isotonic with glucose, pH 5-7).
Statistical analyses. The effects of compounds on avoidance and escape failure behaviours are statistically evaluated by means of two-way repeated measures ANOVA followed by post hoc comparisons (Student-Newman-Keuls Method) when appropriate. P-levels <0.05 are considered statistically significant.

[3] = system: dopaminergic neurons in the ventral tegmental area; experiment: Spontaneous DA cell firing in the VTA of anaesthetised rats (extracellular single-cell recordings); conditions: mean ± SEM
Method: Subjects. Male Wistar rats (Harlan, The Netherlands) weighing 270-340 g are used. The animals are housed under a 12-hr light/dark cycle under controlled conditions for regular in-door temperature (21±2° C.) and humidity (55±5%) with food and tap water available ad libitum.
Administration of compound. […] These i.v. doses match the s.c. dose range of 0-10 mg/kg.
Statistical analysis. Drug effects are assessed by statistical comparison of the mean firing rate calculated from the 2-3 min period immediately before the first drug administration (baseline) to the mean firing rate calculated from at least 60 s at the maximal drug effect. Data are analysed statistically by a one-way analysis of variance (ANOVA) followed by Student-Newman-Keuls post hoc test. A p-value less than 0.05 is considered significant.

[4] = system: immobility in the mouse forced swim test; experiment: Mouse forced swim test; assay type: in vivo; conditions: mice, time immobile during last 3 min of 6 min swim, vehicle = 100
Method: Subjects. Male NMRI mice (Charles River) weighing 23-25 g are used. […] 8 mice are used pr experimental group.
Experimental procedure. The mice are placed in 2000 ml beaker containing 1200 ml of tempered water (25° C.) and left to swim for 6 min. The performance of the mice is videorecorded, digitalized and analysed by means of a digital analysis system (Bioobserve). The time spent immobile for the last 3 min. of the test session is quantified for each mouse.
Analyses. […] A post-hoc test (Student-Newman-Keuls) is employed when appropriate. P-levels <0.05 were considered significant.

baseline motility = experiment: Baseline motility in mice (vehicle-pretreated, vehicle-challenged); assay type: in vivo, mouse; conditions: s.c., Std. Dev. in brackets
Method: Subjects. Male NMRI mice (Charles River) weighing approx. 35 g are used. […] 12 mice are used pr experimental group.
Experimental procedure. All mice are pre-treated once daily for five days with either d-amphetamine sulphate (2.5 mg/kg s.c.) or saline (10 ml/kg). For the 17 days between the last day of pre-treatment and the test day, the animals are kept in their homecage receiving the care as described above. The experiment is performed under normal light conditions in an undisturbed room. The mice are treated with test substance or vehicle and placed individually in the test cages for 30 min. The mice are then challenged with D-amphetamine sulphate (1.25 mg/kg s.c.) or saline (5 ml/kg) and replaced in the test-cage and data acquisition is begun. 5×8 infrared light sources and photocells interspaced by 4 cm monitor the locomotor activity. The light beams cross the cage 1.8 cm above the bottom of the cage.
Administration of compounds.
Data analyses. […] Similarly an ED50 for inhibiting baseline motility is calculated by expressed the motility response in vehicle-pretreated, vehicle-challenged, drug-treated animals relative to the baseline motility response. A therapeutic index value is subsequently calculated by dividing the first ED50 by the second.

[5] = system: d-amphetamine induced hyperactivity in rats; experiment: Amphetamine-induced hyperactivity in the rat (amphetamine antagonism); assay type: in vivo; conditions: read-out: Amphetamine antagonism ED50 (mg/kg) ± std. dev.
Description: Subjects. Male Wistar rats (Taconic, Denmark) weighing 170-240 g are used. […] Eight rats are used at each dose level and in the parallel control group receiving the vehicle to the test compound plus d-amphetamine and the group receiving vehicle injections only.

[6] = 2.5 mg/kg s.c. 30 min before test
[7] = 5.0 mg/kg s.c. 30 min before test

Cc1cc(N2CCOCC2)cc(C)c1NC(=O)CC1CCCC1
Normalised DA level in the nucleus accumbens ([1]; Time 0 min (baseline sample)): 99 ± 4 % of baseline | Normalised DA level in the nucleus accumbens ([1]; Time 20 min): 125 ± 9 % of baseline | Normalised DA level in the nucleus accumbens ([1]; Time 40 min): 264 ± 39 % of baseline | Normalised DA level in the nucleus accumbens ([1]; Time 60 min): 265 ± 17* % of baseline | Normalised DA level in the nucleus accumbens ([1]; Time 80 min): 231 ± 22 % of baseline | Normalised DA level in the nucleus accumbens ([1]; Time 100 min): 167 ± 25 % of baseline | Normalised DA level in the nucleus accumbens ([1]; Time 120 min): 109 ± 11 % of baseline | Normalised DA level in the nucleus accumbens ([1]; Time 140 min): 93 ± 15 % of baseline | Normalised DA level in the nucleus accumbens ([1]; Time −20 min (baseline sample)): 106 ± 5 % of baseline | Normalised DA level in the nucleus accumbens ([1]; Time −40 min (baseline sample)): 95 ± 6 % of baseline | Effect on the basal extracellular DA level in the nucleus accumbens [1]: None of the latter three compounds significantly affects the basal extracellular DA level | inhibition at 2.5 mg/kg [2]: 5% | inhibition at 5 mg/kg [2]: 65% | Spontaneous DA cell firing rate in the VTA ([3]; cumulated dose 0.03 mg/kg i.v.): 95.1 ± 1.9 (4) percentage of baseline firing rate | Spontaneous DA cell firing rate in the VTA ([3]; cumulated dose 0.1 mg/kg i.v.): 88.2 ± 2.8 (5) percentage of baseline firing rate | Spontaneous DA cell firing rate in the VTA ([3]; cumulated dose 0.3 mg/kg i.v.): 74.6 ± 3.6 (4) percentage of baseline firing rate | Spontaneous DA cell firing rate in the VTA ([3]; cumulated dose 0.6 mg/kg i.v.): 64.1 ± 7.1 (2) percentage of baseline firing rate | Spontaneous DA cell firing rate in the VTA ([3]; cumulated dose 0.9 mg/kg i.v.): 55.8 ± 6.5 (2) percentage of baseline firing rate | Immobility in % (±S.D.) ([4]; 1.3 mg/kg): 97.5 (6.3) % | Immobility in % (±S.D.) [4, 6]: 97 (6.7) % | Immobility in % (±S.D.) [4, 7]: 81.0 (18)* %

CCOC(=O)Nc1ccc(NCc2c(C)cc(C)cc2C)cc1N [[2-Amino-4-(2,4,6-trimethyl-benzylamino)-phenyl]-carbamic acid ethyl ester]
Inhibition of baseline motility, ED50 (baseline motility): 4.3 mg/kg

Cc1cc2c(s1)Nc1ccccc1N=C2N1CCN(C)CC1 [Olanzapine, reference compound]
ED50 [5]: 0.21 mg/kg | Immobility in % (±S.D.) ([4]; 0.31 mg/kg): 96 (14) % | Immobility in % (±S.D.) ([4]; 1.3 mg/kg): 95 (11) %

Cc1cc(N2CCOCC2)cc(C)c1NC(=O)CC(C)(C)C
Normalised DA level in the nucleus accumbens ([1]; Time 0 min (baseline sample)): 91 ± 4 % of baseline | Normalised DA level in the nucleus accumbens ([1]; Time 20 min): 112 ± 12 % of baseline | Normalised DA level in the nucleus accumbens ([1]; Time 40 min): 227 ± 46 % of baseline | Normalised DA level in the nucleus accumbens ([1]; Time 60 min): 262 ± 53* % of baseline | Normalised DA level in the nucleus accumbens ([1]; Time 80 min): 195 ± 38* % of baseline | Normalised DA level in the nucleus accumbens ([1]; Time 100 min): 172 ± 24 % of baseline | Normalised DA level in the nucleus accumbens ([1]; Time 120 min): 166 ± 32 % of baseline | Normalised DA level in the nucleus accumbens ([1]; Time 140 min): 129 ± 35 % of baseline | Normalised DA level in the nucleus accumbens ([1]; Time −20 min (baseline sample)): 100 ± 3 % of baseline | Normalised DA level in the nucleus accumbens ([1]; Time −40 min (baseline sample)): 108 ± 5 % of baseline | Effect on the basal extracellular DA level in the nucleus accumbens [1]: None of the latter three compounds significantly affects the basal extracellular DA level | inhibition at 2.5 mg/kg [2]: 1% | inhibition at 5 mg/kg [2]: 71% | Spontaneous DA cell firing rate in the VTA ([3]; cumulated dose 0.03 mg/kg i.v.): 89.8 ± 4.5 (5) percentage of baseline firing rate | Spontaneous DA cell firing rate in the VTA ([3]; cumulated dose 0.1 mg/kg i.v.): 81.0 ± 4.0 (5) percentage of baseline firing rate | Spontaneous DA cell firing rate in the VTA ([3]; cumulated dose 0.25 mg/kg i.v.): 74.1 ± 6.3 (4) percentage of baseline firing rate | Spontaneous DA cell firing rate in the VTA ([3]; cumulated dose 0.5 mg/kg i.v.): 68.1 ± 6.0 (4) percentage of baseline firing rate | Spontaneous DA cell firing rate in the VTA ([3]; cumulated dose 1.0 mg/kg i.v.): 57.1 ± 7.9 (3) percentage of baseline firing rate | Immobility in % (±S.D.) ([4]; 1.3 mg/kg): 102 (4.6) % | Immobility in % (±S.D.) [4, 6]: 96.7 (7.5) % | Immobility in % (±S.D.) [4, 7]: 82.3 (20)* %
